Test results: patent US20020026053A1, “Novel 3-(substituted) -2- indolinones compounds and use thereof as inhibitors of protein kinase activity” (priority 1997, published 2002)

Test system: FLK-1 receptor
Experiment: FLK-1 Assay (cellular/catalytic ELISA, VEGF-stimulated phosphotyrosine)
Assay type: cell-based
Set-up: concentration or dose not given beside the values
Conditions: protocol P.110
How it was run: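 NIH3T3 C7#3 cells engineered to express Flk-1 were serum-starved overnight (0.1% FBS), then exposed to compound for 2 h at 37 °C (final dilution 1:200, 0.5% DMSO) before VEGF stimulation. Lysates captured on anti-FLK-1 antiserum plates; phosphotyrosine detected by UB40 antibody/POD-ABTS ELISA versus untreated controls.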

Row | SMILES | Flk Kinase % Inhibition (P.110)
1 | COC1CCCN1C=C1C(=O)Nc2c(Br)cc(Br)cc21 (racemic) [10740/A04] | 1.3%
2 | COC1CCCN1C=C1C(=O)Nc2ccc(I)cc21 (racemic) [10740/B04] | −0.3%
3 | Cc1c(Br)cc(Br)c2c1C(=Cc1ccc(CO)o1)C(=O)N2 [10739/H11] | −7.6%
4 | O=C1Nc2c(Br)cc(Br)cc2C1=Cc1cnc2ccccc2c1 [10740/A02] | 5.7%
5 | O=C1Nc2c(Br)cc(Br)cc2C1=Cc1ccnc2ccccc12 [10740/A03] | 4.2%
6 | O=C1Nc2c(Br)cc(Br)cc2C1=Cc1ccsc1 [10740/A05] | −13.1%
7 | O=C1Nc2c(Br)cc(Br)cc2C1=Cc1ccc2ccccc2n1 [10740/A06] | −8.7%
8 | Cn1cc(C=C2C(=O)Nc3c(Br)cc(Br)cc32)c2ccccc21 [10740/A07] | −18.3%
9 | Cc1[nH]c2ccccc2c1C=C1C(=O)Nc2c(Br)cc(Br)cc21 [10740/A08] | −18.3%
10 | O=C1Nc2c(Br)cc(Br)cc2C1=Cc1cc(Br)cs1 [10740/A10] | −7.7%
11 | CCCCOc1ccc(C=C2C(=O)Nc3c(Br)cc(Br)cc32)cc1 [10740/A11] | −3.5%
12 | O=C1Nc2ccc(I)cc2C1=Cc1cnc2ccccc2c1 [10740/B02] | −17.0%
13 | O=C1Nc2ccc(I)cc2C1=Cc1ccnc2ccccc12 [10740/B03] | −9.3%
14 | O=C1Nc2ccc(I)cc2C1=Cc1ccsc1 [10740/B05] | −11.6%
15 | O=C1Nc2ccc(I)cc2C1=Cc1ccc2ccccc2n1 [10740/B06] | −5.9%
16 | Cn1cc(C=C2C(=O)Nc3ccc(I)cc32)c2ccccc21 [10740/B07] | −8.5%
17 | Cc1[nH]c2ccccc2c1C=C1C(=O)Nc2ccc(I)cc21 [10740/B08] | 6.6%
18 | O=C1Nc2ccc(I)cc2C1=Cc1cc(Br)cs1 [10740/B10] | 11.8%
19 | CCCCOc1ccc(C=C2C(=O)Nc3ccc(I)cc32)cc1 [10740/B11] | 0.7%
20 | Cc1c(Br)ccc2c1C(=Cc1cnc3ccccc3c1)C(=O)N2 [10740/C02] | −5.9%
21 | Cc1c(Br)ccc2c1C(=Cc1ccnc3ccccc13)C(=O)N2 [10740/C03] | −129.3%
22 | COC1CCCN1C=C1C(=O)Nc2ccc(Br)c(C)c21 (stereo not shown) [10740/C04] | −3.4%
23 | Cc1c(Br)ccc2c1C(=Cc1ccsc1)C(=O)N2 [10740/C05] | −19.1%
24 | Cc1c(Br)ccc2c1C(=Cc1ccc3ccccc3n1)C(=O)N2 [10740/C06] | −19.1%
25 | Cc1c(Br)ccc2c1C(=Cc1cn(C)c3ccccc13)C(=O)N2 [10740/C07] | 1.1%

Row | SMILES | Flk Kinase % Inhibition (P.110)
26 | Cc1[nH]c2ccccc2c1C=C1C(=O)Nc2ccc(Br)c(C)c21 [10740/C08] | 4.6%
27 | Cc1c(Br)ccc2c1C(=Cc1cc(Br)cs1)C(=O)N2 [10740/C10] | 0.8%
28 | CCCCOc1ccc(C=C2C(=O)Nc3ccc(Br)c(C)c32)cc1 [10740/C11] | 6.9%
29 | CNS(=O)(=O)c1ccc2c(c1)C(=Cc1cnc3ccccc3c1)C(=O)N2 [10740/D02] | 4.1%
30 | CNS(=O)(=O)c1ccc2c(c1)C(=Cc1ccnc3ccccc13)C(=O)N2 [10740/D03] | 15.1%
31 | CNS(=O)(=O)c1ccc2c(c1)C(=CN1CCCC1OC)C(=O)N2 (stereo not shown) [10740/D04] | −2.0%
32 | CNS(=O)(=O)c1ccc2c(c1)C(=Cc1ccsc1)C(=O)N2 [10740/D05] | −6.3%
33 | CNS(=O)(=O)c1ccc2c(c1)C(=Cc1ccc3ccccc3n1)C(=O)N2 [10740/D06] | 9.6%
34 | CNS(=O)(=O)c1ccc2c(c1)C(=Cc1cn(C)c3ccccc13)C(=O)N2 [10740/D07] | −4.5%
35 | CNS(=O)(=O)c1ccc2c(c1)C(=Cc1c(C)[nH]c3ccccc13)C(=O)N2 [10740/D08] | −6.4%
36 | CNS(=O)(=O)c1ccc2c(c1)C(=Cc1cc(Br)cs1)C(=O)N2 [10740/D10] | 1.5%
37 | CCCCOc1ccc(C=C2C(=O)Nc3ccc(S(=O)(=O)NC)cc32)cc1 [10740/D11] | 3.0%
38 | O=C1Nc2ccc(S(=O)(=O)Nc3ccc(C(F)(F)F)cc3)cc2C1=Cc1cnc2ccccc2c1 [10740/E02] | 9.6%
39 | O=C1Nc2ccc(S(=O)(=O)Nc3ccc(C(F)(F)F)cc3)cc2C1=Cc1ccnc2ccccc12 [10740/E03] | 0.2%
40 | COC1CCCN1C=C1C(=O)Nc2ccc(S(=O)(=O)Nc3ccc(C(F)(F)F)cc3)cc21 (stereo not shown) [10740/E04] | 2.0%
41 | O=C1Nc2ccc(S(=O)(=O)Nc3ccc(C(F)(F)F)cc3)cc2C1=Cc1ccsc1 [10740/E05] | 28.7%
42 | O=C1Nc2ccc(S(=O)(=O)Nc3ccc(C(F)(F)F)cc3)cc2C1=Cc1ccc2ccccc2n1 [10740/E06] | −8.4%
43 | Cn1cc(C=C2C(=O)Nc3ccc(S(=O)(=O)Nc4ccc(C(F)(F)F)cc4)cc32)c2ccccc21 [10740/E07] | 34.4%
44 | Cc1[nH]c2ccccc2c1C=C1C(=O)Nc2ccc(S(=O)(=O)Nc3ccc(C(F)(F)F)cc3)cc21 [10740/E08] | 39.1%
45 | O=C1Nc2ccc(S(=O)(=O)Nc3ccc(C(F)(F)F)cc3)cc2C1=Cc1cc(Br)cs1 [10740/E10] | 11.8%
46 | CCCCOc1ccc(C=C2C(=O)Nc3ccc(S(=O)(=O)Nc4ccc(C(F)(F)F)cc4)cc32)cc1 [10740/E11] | 17.1%
47 | O=C1Nc2ccc(S(=O)(=O)N3CCOCC3)cc2C1=Cc1cnc2ccccc2c1 [10740/F02] | 2.8%
48 | O=C1Nc2ccc(S(=O)(=O)N3CCOCC3)cc2C1=Cc1ccnc2ccccc12 [10740/F03] | −0.9%
49 | COC1CCCN1C=C1C(=O)Nc2ccc(S(=O)(=O)N3CCOCC3)cc21 (stereo not shown) [10740/F04] | 6.8%
50 | O=C1Nc2ccc(S(=O)(=O)N3CCOCC3)cc2C1=Cc1ccsc1 [10740/F05] | −13.5%

Row | SMILES | Flk Kinase % Inhibition (P.110)
51 | O=C1Nc2ccc(S(=O)(=O)N3CCOCC3)cc2C1=Cc1ccc2ccccc2n1 [10740/F06] | 1.3%
52 | Cn1cc(C=C2C(=O)Nc3ccc(S(=O)(=O)N4CCOCC4)cc32)c2ccccc21 [10740/F07] | −6.3%
53 | Cc1[nH]c2ccccc2c1C=C1C(=O)Nc2ccc(S(=O)(=O)N3CCOCC3)cc21 [10740/F08] | −5.0%
54 | O=C1Nc2ccc(S(=O)(=O)N3CCOCC3)cc2C1=Cc1cc(Br)cs1 [10740/F10] | 10.0%
55 | CCCCOc1ccc(C=C2C(=O)Nc3ccc(S(=O)(=O)N4CCOCC4)cc32)cc1 [10740/F11] | 8.2%
56 | O=C1Nc2ccc(CCCl)cc2C1=Cc1cnc2ccccc2c1 [10740/G02] | −2.6%
57 | O=C1Nc2ccc(CCCl)cc2C1=Cc1ccnc2ccccc12 [10740/G03] | −2.0%
58 | COC1CCCN1C=C1C(=O)Nc2ccc(CCCl)cc21 (stereo not shown) [10740/G04] | −5.1%
59 | O=C1Nc2ccc(CCCl)cc2C1=Cc1ccsc1 [10740/G05] | −18.6%
60 | O=C1Nc2ccc(CCCl)cc2C1=Cc1ccc2ccccc2n1 [10740/G06] | −19.3%
61 | Cn1cc(C=C2C(=O)Nc3ccc(CCCl)cc32)c2ccccc21 [10740/G07] | 0.4%
62 | Cc1[nH]c2ccccc2c1C=C1C(=O)Nc2ccc(CCCl)cc21 [10740/G08] | −0.5%
63 | O=C1Nc2ccc(CCCl)cc2C1=Cc1cc(Br)cs1 [10740/G10] | −2.8%
64 | CCCCOc1ccc(C=C2C(=O)Nc3ccc(CCCl)cc32)cc1 [10740/G11] | 3.3%
65 | Cc1c(Br)cc(Br)c2c1C(=Cc1cnc3ccccc3c1)C(=O)N2 [10740/H02] | −3.7%
66 | Cc1c(Br)cc(Br)c2c1C(=Cc1ccnc3ccccc13)C(=O)N2 [10740/H03] | −9.7%
67 | COC1CCCN1C=C1C(=O)Nc2c(Br)cc(Br)c(C)c21 (stereo not shown) [10740/H04] | 6.0%
68 | Cc1c(Br)cc(Br)c2c1C(=Cc1ccsc1)C(=O)N2 [10740/H05] | 5.8%
69 | Cc1c(Br)cc(Br)c2c1C(=Cc1ccc3ccccc3n1)C(=O)N2 [10740/H06] | 3.2%
70 | Cc1c(Br)cc(Br)c2c1C(=Cc1cn(C)c3ccccc13)C(=O)N2 [10740/H07] | 10.1%
71 | Cc1[nH]c2ccccc2c1C=C1C(=O)Nc2c(Br)cc(Br)c(C)c21 [10740/H08] | 11.5%
72 | Cc1c(Br)cc(Br)c2c1C(=Cc1cc(Br)cs1)C(=O)N2 [10740/H10] | 0.4%
73 | CCCCOc1ccc(C=C2C(=O)Nc3c(Br)cc(Br)c(C)c32)cc1 [10740/H11] | 7.4%
